Assay results reported in US20130005802A1, “TREATMENT OF WNT/FRIZZLED-RELATED DISEASES” (priority 2009, published 2013).

Target: Frizzled1-GFP (Rattus norvegicus, UniProt Q08463)
Experiment: Image-based Frizzled1-GFP internalization assay (primary screening assay) in Fzd1GFP-U2OS cells
Assay type: cell-based
Conditions: 6 hr, 0.47-7.5 μM tested
Description: To obtain a Frizzled1-GFP stable cell line (Fzd1GFP-U2OS), U2OS cells were transfected with pCS2ratFrizzled1-GFP and pLKO.1 (10:1 ratio by weight), using the Nucleofection transfection protocol from Amaxa, and stable receptor expressing clones were selected using 1.5 μg/mL puromycin in the culture medium. For generating TOPFlash stable cell lines, HEK293 cells were transfected with p8xTOPFlash, the Renilla luciferase plasmid, and pLKO.1 at a ratio by weight of 10:3:1 and stable clones selected using 1 μg/mL puromycin in the growth medium. pLKO.1 was used to confer puromycin resistance to the stable clones.
The plates were incubated overnight at 37° C. in 5% CO2. […]
To measure the number of the internalized vesicles per cell, cytosol was carefully traced to exclude cell membrane. […] The number of internalized vesicles per cell was counted by the Metamorph software. More than 30 cells per sample were analyzed to obtain statistical significance. […]
To determine the time-course of internalization for Frizzled1-GFP receptors, the accumulation of cytosolic puncta/vesicles was measured (FIG. 4A-4E). Internalization was assessed by counting the number of Frizzled1-GFP containing vesicles in the cytosol using the computer program Metamorph, and the results are presented in the graph for the given times (0 hr, n=51 cells; 1 hr, n=69; 2 hr, n=32; 4 hr, n=55, and 6 hr, n=61). […]

Frizzled1-GFP, sequence (Q08463 69-641): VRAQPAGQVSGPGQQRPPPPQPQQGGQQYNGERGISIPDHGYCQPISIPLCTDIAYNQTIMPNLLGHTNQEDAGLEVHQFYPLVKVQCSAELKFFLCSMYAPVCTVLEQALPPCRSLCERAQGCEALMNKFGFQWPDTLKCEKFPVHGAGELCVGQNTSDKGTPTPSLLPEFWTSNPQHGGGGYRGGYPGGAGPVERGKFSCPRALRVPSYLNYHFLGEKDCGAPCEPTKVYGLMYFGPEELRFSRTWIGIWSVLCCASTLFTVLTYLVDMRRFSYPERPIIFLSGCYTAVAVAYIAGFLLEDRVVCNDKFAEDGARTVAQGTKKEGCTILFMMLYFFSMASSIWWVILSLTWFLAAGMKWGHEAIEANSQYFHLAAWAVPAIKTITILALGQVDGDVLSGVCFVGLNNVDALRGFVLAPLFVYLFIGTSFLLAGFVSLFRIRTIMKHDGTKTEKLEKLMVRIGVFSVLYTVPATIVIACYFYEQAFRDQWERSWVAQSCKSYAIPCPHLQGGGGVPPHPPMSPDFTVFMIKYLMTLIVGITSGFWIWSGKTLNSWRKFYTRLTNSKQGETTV

O=C(Nc1ccc([N+](=O)[O-])cc1Cl)c1cc(Cl)ccc1O [niclosamide] was tested, and the “concentration with significant increase in the number of internalized receptors” value was 1 to 2 µM.
